From patent US4375478A, “Aminobenzoic acid derivatives” (Abbott Laboratories, priority 1982, dated 1983)

Experiments:
[1] = test system: acyl-coenzyme A:cholesterol acyl transferase (ACAT); assay: Acyl-coenzyme A:cholesterol acyl transferase (ACAT) assay in vitro, liver microsomal protein, cholesterol oleate formation; format: biochemical; conditions: for ACAT inhibition: 1.0×10^-4 M; for Cholesterol Oleate CPM + S.D. / Cholesterol Oleate Inhibition Percent: 1.0 × 10^-4 M, Ethanol
Method: Test Compound (final concentration=1.0×10^-4 M) and 120 mcg of liver microsomal protein were preincubated for 5 minutes at 37° C. in 0.1 M phosphate buffer, pH 7.4, containing 6.0×10^-5 M bovine serum albumin and 0.002 M dithiothreitol (final volume=0.189 ml). Oleoyl-1-^14 C-coenzyme A, dissolved in buffer, was added in a volume of 0.011 ml so that the final concentration was 6.0×10^-5 M at a specific activity of 10.8 mCi/mmol (0.11 u Ci/tube). After incubation at 37° C. for 10 minutes, the reaction was stopped with the addition of 4.0 ml of chloroform:methanol at a ratio of 2:1 (C-M). The mixture was shaken after the addition of 0.84 ml of water, and the organic layer was evaporated to dryness. The aqueous phase was extracted again with 4.0 ml of C-M and the organic layer added to the dried residue of the first extractant. After evaporation, the residue was taken up in 0.040 ml of toluene:chloroform (4:1) and 0.020 ml were spotted on a Silica Gel-G TLC plate, 250 u thickness.

[2] = test system: acyl-coenzyme A:cholesterol acyl transferase (ACAT); conditions: 1.0×10^-4 M; cited from earlier work
[3] = test system: gerbils; assay: Plasma lipoprotein effects in gerbils; format: in vivo, gerbil; conditions: for HDL-C, Before Test / LDL-C plus VLDL-C, Before Test / Total Cholesterol, Before Test / HDL-C, After Test / LDL-C plus VLDL-C, After Test / Total Cholesterol, After Test / HDL-C, Percent Change / LDL-C plus VLDL-C, Percent Change / Total Cholesterol, Percent Change: gerbil plasma; for HDL-C, Before Test / LDL-C plus VLDL-C, Before Test / Total Cholesterol, Before Test: baseline before dosing; for HDL-C, Percent Change / LDL-C plus VLDL-C, Percent Change / Total Cholesterol, Percent Change: p 0.05
Method: Test compounds were suspended in 0.1% methylcellulose in isotonic saline at a concentration such that the desired dose was given in a volume of 4.0 ml/kg.
On the day before initiation of the experiment and on the day before the last dose, food was removed from the gerbils in the early evening, and at 9 a.m. the next day the animals were bled by heart puncture (0.5 ml) after light ether anesthesia; the animals were dosed approximately 2 hours after bleeding on Day 0 and 2 hours before bleeding on the last dosing day. The blood sample was mixed with a solution of EDTA, 50 mg/ml at pH 7.4, so that the final concentration was 1.5 mg/ml. After swirling, the contents were centrifuged at 1500×g for 10 minutes at 5° C. The plasma was removed from the packed cells and a portion was analyzed for cholesterol utilizing the ABA-100 and A-GENT cholesterol reagent. To 0.100 ml of another portion of plasma was added 0.010 ml of Mg^+2 -phosphotungstate reagent (prepared daily by adding one part of MgCl2, 1.5 M, and 4 parts of sodium phosphotungstate, 4%, adjusted to pH 7.4 with 1.0 N NaOH. The mixture was vortexed and allowed to remain at room temperature for 5 minutes. The sample was centrifuged at 100,000×g for 5 minutes and an aliquot of supernatant analyzed for HDL cholesterol (HDL-C). The difference between total plasma cholesterol and HDL-C (after correction for dilution) was utilized as an estimate of low density plus very low density lipoprotein cholesterol (LDL-C plus VLDL-C). Animals were treated for 5 days in the first experiment and for 4 days in the second.
Controls and test compounds were evaluated in groups of 12 gerbils. The significance of the changes in the plasma parameters was evaluated by a paired t-test; tests of hypothesis were performed at the 0.05 significance level.

[4] = Solubility in the ACAT incubation medium with ethanol; format: physicochemical; conditions: 1% alcohol, 1.0×10^-4 M
Method: The plate was developed in a hexane:diethyl ether:acetic acid solution (90:10:1) and the cholesterol oleate area was visualized with iodine vapor. The cholesterol oleate spot (Rf=0.70) was scraped from the plate and counted in Packard Scinto Liquid. Samples were run in triplicate, and percent inhibition was calculated utilizing controls with sample solvent only. Compounds were dissolved in ethanol, and the final concentration in the incubation medium was 1.0% in the first experiment and 2.5% in the second.

[5] = 1% alcohol (first value of the pair)
[6] = 2.5% alcohol (second value of the pair)
[7] = 100 mg/kg, five days, ± standard deviation
[8] = 100 mg/kg, five days, significant difference
[9] = 123 mg/kg, four days, significant difference
[10] = 100 mg/kg, four days, no significant difference

SMILES: CC(=O)[C@H]1CC[C@H]2[C@@H]3CCC4=CC(=O)CC[C@]4(C)[C@H]3CC[C@]12C [Progesterone]
- ACAT inhibition [1, 5]: 84%
- ACAT inhibition [1, 6]: 74%
- Cholesterol Oleate CPM + S.D. ([1]; 1%): 891 ± 555 CPM
- Cholesterol Oleate Inhibition Percent ([1]; 1%): 65%
- Cholesterol Oleate CPM + S.D. ([1]; 2.5%): 453 ± 61 CPM
- Cholesterol Oleate Inhibition Percent ([1]; 2.5%): 66%
- ACAT inhibition ([1]; at both alcohol concentrations (1% and 2.5%)): 65-66%
- ACAT inhibition, literature value of the reference standard [2]: 60%

SMILES: CCCCCCCCCCCCCCCCNc1c(Cl)cc(C(=O)O)cc1Cl [Compound B, Sodium (3,5-dichloro-4-hexadecylamino)benzoate]
- HDL-C, Before Test [3, 7]: 51.7 ± 11.1 mg/dL
- LDL-C plus VLDL-C, Before Test [3, 7]: 44.8 ± 7.1 mg/dL
- Total Cholesterol, Before Test [3, 7]: 96.6 ± 12.9 mg/dL
- HDL-C, After Test [3, 7]: 42.0 ± 7.0 mg/dL
- LDL-C plus VLDL-C, After Test [3, 7]: 35.8 ± 6.0 mg/dL
- Total Cholesterol, After Test [3, 7]: 77.7 ± 12.3 mg/dL
- HDL-C, Percent Change [3, 8]: -19%
- LDL-C plus VLDL-C, Percent Change [3, 8]: -20%
- Total Cholesterol, Percent Change [3, 8]: -20%
- HDL-C, After Test ([3]; 123 mg/kg, four days): 48.8 ± 9.7 mg/dL
- LDL-C plus VLDL-C, After Test ([3]; 123 mg/kg, four days): 32.1 ± 8.8 mg/dL
- Total Cholesterol, After Test ([3]; 123 mg/kg, four days): 81.0 ± 10.2 mg/dL
- HDL-C, Before Test ([3]; 123 mg/kg, four days): 53.7 ± 9.9 mg/dL
- LDL-C plus VLDL-C, Before Test ([3]; 123 mg/kg, four days): 42.9 ± 16.8 mg/dL
- Total Cholesterol, Before Test ([3]; 123 mg/kg, four days): 96.6 ± 20.3 mg/dL
- HDL-C, Percent Change [3, 9]: -9%
- LDL-C plus VLDL-C, Percent Change [3, 9]: -25%
- Total Cholesterol, Percent Change [3, 9]: -10%
- animal deaths in the group ([3]; gerbils, groups of 12, four days, 123 mg/kg): One animal died

SMILES: CCCCCCCCCCCCCCCCNc1ccc(C(=O)[O-])cc1.[Na+]
- ACAT inhibition [1, 5]: 26%
- ACAT inhibition [1, 6]: 45%
- Cholesterol Oleate CPM + S.D. ([1]; 1%): 1917 ± 33 CPM
- Cholesterol Oleate Inhibition Percent ([1]; 1%): 26%
- Cholesterol Oleate CPM + S.D. ([1]; 2.5%): 735 ± 187 CPM
- Cholesterol Oleate Inhibition Percent ([1]; 2.5%): 45%
- HDL-C, After Test ([3]; 100 mg/kg, four days): 45.1 ± 3.8 mg/dL
- LDL-C plus VLDL-C, After Test ([3]; 100 mg/kg, four days): 44.9 ± 10.6 mg/dL
- Total Cholesterol, After Test ([3]; 100 mg/kg, four days): 90.0 ± 11.7 mg/dL
- HDL-C, Before Test ([3]; 100 mg/kg, four days): 47.1 ± 13.4 mg/dL
- LDL-C plus VLDL-C, Before Test ([3]; 100 mg/kg, four days): 45.9 ± 15.3 mg/dL
- Total Cholesterol, Before Test ([3]; 100 mg/kg, four days): 93.0 ± 13.3 mg/dL
- HDL-C, Percent Change [3, 10]: -4%
- LDL-C plus VLDL-C, Percent Change [3, 10]: -2%
- Total Cholesterol, Percent Change [3, 10]: -3%
- solubility in incubation medium [4]: not completely soluble
